Patent EP0266828B1, “Control of biofouling with certain alkylthioalkylamines” (THE DOW CHEMICAL COMPANY, priority 1986, dated 1988)
In brackets after ≈: the same amount, converted by molar mass. Where two headings read alike, the source gives them in different places.

Tests used:
[1] = test system: Enterobacter aerogenes; experiment: Minimum inhibitory concentration (MIC) procedure in agar at alkaline pH; type: cell-based; settings: Klebsiella aerogenes; pH 8.2; 48 hours at 30°C; no high water hardness; unit ppm only from method
Protocol: The agar (nutrient agar) was dispensed in 30 ml aliquots into 25 x 200 millimeter (mm) test tubes, capped and autoclaved for 15 minutes at 115°C. The test tubes containing the agar were cooled in a water bath until the temperature of the agar was 48°C and then an appropriate amount of the one percent solution of the test compound was added (except in the controls where no test compound was added) to the respective test tubes so that final concentrations of 500, 250, 100, 50, 25, 10, 5, 2.5, 1.0 and 0 parts per million (ppm) of the test compound in the agar were obtained. The afar solutions were each mixed and poured into individual petri plates so that each petri plate contained agar having a known concentration of test compound dispersed therein. After drying for 24 hours, the petri plates were inoculated with bacteria. The inoculation with bacteria was accomplished using the following procedure. Twenty-four hour cultures of the bacteria were prepared by incubating the bacteria in tubes containing nutrient broth for 24 hours at 30°C in a shaker. Dilutions of the 24 hour culture were made so that a suspension was made, containing about 10⁸ colony forming units (CFU) per ml of suspension of bacteria. Aliquots of 0.3 ml of the above suspension were used to fill individual wells of a Steer's Replicator. The Steer's Replicator was then used to inoculate the petri plates. The petri plates were incubated at 30°C for 48 hours and then read to determine if the test compound which was incorporated into the agar prevented growth of the respective bacteria. The minimum inhibitory concentration (MIC) for each bacteria was defined as the lowest concentration of the test compound which prevented growth of that bacteria. The MIC procedure substantially as described in Example 1 was performed. High water hardness was not evaluated in this study.

[2] = test system: Enterobacter aerogenes, ATCC #13048; experiment: Kill time evaluation (concentration that kills all cells); type: cell-based; settings: Klebsiella aerogenes, ATCC13048
Protocol: Hard water was prepared by sterilizing deionized water and adjusted to 500 ppm hardness and 100 ppm alkalinity by addition of 16.7 ml of sterile CaCl₂·2H₂O (36.8 g/l), 16.7 ml of sterile MgSO₄·7H₂O (12 g/l), and 5 ml of sterile NaHCO₃ (16.8 g/l) to 1 liter of water. The pH was adjusted by addition of diluted NaOH or acetic acid.
(§1) Nutrient broth containing 300 ppm total organic carbon (TOC) and 800 ppm total dissolved solids (TDS), was adjusted to pH 8.5 with NaOH and dispensed in 10 ml aliquots into 18 x 150 mm test tubes. These tubes were capped and autoclaved for 15 minutes at 121°C. Immediately before use, 50 microliters (µl) of a heat sterilized solution of 31.74 g/l MgCl₂ and 73.99 g/l CaCl₂ was added to tubes designated to contain 500 ppm hardness. The tubes with and without added hardness were readjusted to pH 8.5 by addition of appropriate amounts of a filter sterilized solution of 16.8 g/l NaHCO. One hundred and eighty and 125 µl of the NaHCO solution were added, respectively, to tubes with and without added hardness to achieve a pH of 8.5.
(§2) Unless otherwise indicated, Enterobacter aerogenes, ATCC #13048, was used as the test organism. Three 0.1 ml aliquots of a 24 hour nutrient broth culture were pipetted onto three nutrient agar plates and spread uniformly with a Petri dish spreader. After 24 hours' growth, the cells were scraped and washed off the agar surface with sterile glass rods (hockey sticks) and sterile saline solution. After vigorous mixing (vortexing) to break up clumps, the cell suspension was filtered through a sterile filter (Whatman #4) to remove residual clumps. […] Solutions with this optical density, when diluted 1:100, contained approximately 10¹⁰ CFU/ml when plated on standard nutrient agar. The exact number of organisms was determined by making serial dilutions of the cell suspension and plating them on nutrient agar plates. Each of the serial dilution tubes was also streaked on a nutrient agar plate. These streaks of known concentrations of organisms were then used as controls to determine the number of organisms in the test samples.
(§3) Just prior to the addition of the test compounds, 0.1 ml of the cell suspension containing approximately 10¹⁰ cells/ml was added to the prepared broth tubes. Solutions of 0.1 percent weight/weight (w/w) of experimental compound were prepared immediately before use. Appropriate amounts of these solutions were added to achieve final concentrations of 100, 50, 25, 10, 5 ppm of active ingredient in broth tubes both with and/or without hardness. The tubes were then incubated at 30°C. After three and/or 24 hours, dilutions of the broth tubes were made by addition of 0.1 ml of the broth into 9.9 ml of 0.85 percent saline containing 100 ppm NaHSO₃. From the saline tube the samples were streaked with cotton swabs onto nutrient agar plates which also contained 100 ppm NaHSO₃.
(§4) The plates were incubated for 24 hours and then read. The number of organisms present in the broth tubes was determined by comparing these plates to the control plates of the serial dilution tubes.
Dilute (1/10) nutrient broth was prepared according to standard methods known in the art and then adjusted to a variety of pH's by the addition of NaOH and HCl. The Kill Time Procedure substantially similar to that described in Example 2 was performed. High water hardness was not evaluated in this study.
The Kill Time Evaluation substantially similar to that described in Example 2 was performed.

[3] = test system: Aspergillus niger; experiment: Kill time procedure against fungus, malt yeast agar; type: cell-based; settings: pH of 8.2 to 8.3, read-out: Ppm of Compound that Resulted in Kill of All Cells at Various Times
Protocol: as §1, §2, §3, §4
The kill time procedure substantially as described in Example 2 was performed using Aspergillus niger at a pH of 8.2 to 8.3. Malt yeast agar was used instead of nutrient agar and the incubation times were extended to accommodate the slower growing fungi cells.

[4] = test system: algae; experiment: Cooling tower trial versus duplicate tower without biocide; settings: 15 ppm added twice a week to recirculating water; pH of 8.5; hardness of 900 ppm; two week period
Excerpt: In comparison, the tower without any added biocide became heavily fouled with algae in the same two week period of time.

[5] = 3 hr, pH 8.5, hardness 500 ppm CaCo3, read-out: Ppm of the Compound that Kill all Cells
[6] = 24 hr, pH 8.5, hardness 500 ppm CaCo3, read-out: Ppm of the Compound that Kill all Cells

| Structure (SMILES) | MIC [1] [µg/mL] | MBC [2, 5] [µg/mL] | MBC [2, 6] [µg/mL] | also measured |
| --- | --- | --- | --- | --- |
| CCCCCCCCCCCCCCSCCN [n-tetradecylthioethylamine] | > 500 | > 500 | > 500 |  |
| CCCCCCCCSCCN [n-octylthioethylamine] | 25 (≈ 132 µM) | 150 (≈ 792 µM) | 75 (≈ 396 µM) | MFC ([3]; pH 8.2, 3 hr.): 50 µg/mL (≈ 264 µM); MFC ([3]; pH 8.2, 6 hr.): 25 µg/mL (≈ 132 µM); MFC ([3]; pH 8.2, 24 hr.): 10 µg/mL (≈ 52.8 µM) |
| CCCCCCCCCCCCSCCN [n-dodecylthioethylamine] | 50 to 100 (≈ 204 to 407 µM) | 50 (≈ 204 µM) | 150 (≈ 611 µM) |  |
| CCCCCCSCCN [n-hexylthioethylamine] | 250 to 500 (≈ 1550 to 3100 µM) | 500 (≈ 3100 µM) | 250 (≈ 1550 µM) |  |
| CCCCCCCCCCCSCCN [n-undecylthioethylamine] | 50 (≈ 216 µM) |  |  |  |
| CCCCCCCCCCSCCN [n-decylthioethylamine] | 10 to 25 (≈ 46 to 115 µM) | 20 (≈ 92 µM) | 40 (≈ 184 µM) | MFC ([3]; pH 8.2, 3 hr.): 3.5 µg/mL (≈ 16.1 µM); MFC ([3]; pH 8.2, 6 hr.): 0.5 to 3.5 µg/mL (≈ 2.3 to 16.1 µM); MFC ([3]; pH 8.2, 24 hr.): 0.1 µg/mL (≈ 0.46 µM); MBC ([2]; pH 5, 3 hours, dilute (1/10) nutrient broth, no high water hardness, read-out: Concentration (ppm) of DTEA That Kills all Cells in 3 Hours): 50 µg/mL (≈ 230 µM); MBC ([2]; pH 6, 3 hours, dilute (1/10) nutrient broth, no high water hardness, read-out: Concentration (ppm) of DTEA That Kills all Cells in 3 Hours): 50 µg/mL (≈ 230 µM); MBC ([2]; pH 7, 3 hours, dilute (1/10) nutrient broth, no high water hardness, read-out: Concentration (ppm) of DTEA That Kills all Cells in 3 Hours): 20 µg/mL (≈ 92 µM); MBC ([2]; pH 8, 3 hours, dilute (1/10) nutrient broth, no high water hardness, read-out: Concentration (ppm) of DTEA That Kills all Cells in 3 Hours): 10 µg/mL (≈ 46 µM); MBC ([2]; pH 9, 3 hours, dilute (1/10) nutrient broth, no high water hardness, read-out: Concentration (ppm) of DTEA That Kills all Cells in 3 Hours): 5 µg/mL (≈ 23 µM); MBC ([2]; pH 10, 3 hours, dilute (1/10) nutrient broth, no high water hardness, read-out: Concentration (ppm) of DTEA That Kills all Cells in 3 Hours): ≤ 5 µg/mL; MBC ([2]; pH 11, 3 hours, dilute (1/10) nutrient broth, no high water hardness, read-out: Concentration (ppm) of DTEA That Kills all Cells in 3 Hours): ≤ 5 µg/mL; MBC ([2]; pH 12, 3 hours, dilute (1/10) nutrient broth, no high water hardness, read-out: Concentration (ppm) of DTEA That Kills all Cells in 3 Hours): ≤ 5 µg/mL; growth of algae in the treated tower or basin [4]: prevent the growth of any algae |
| CCCCCCCCCSCCN [n-nonylthioethylamine] | 25 (≈ 123 µM) |  |  |  |
